ChEMBL document CHEMBL5113378, “Role of basic aminoalkyl chains in the lead optimization of Indoloquinoline alkaloids” (Eur J Med Chem, 2022)

Experiments:
MOLT-3 = experiment: Antiproliferative activity against human MOLT-3 cells assessed as cell growth inhibition; type: functional, cell-based
Plasmodium falciparum [1] = experiment: Antimalarial activity against Plasmodium falciparum K1 […] assessed as parasite growth inhibition; type: functional, organism-based
[2] = Selectivity index, ratio of CC50 for rat L6 cells to IC50 for Plasmodium falciparum K1 […]; type: toxicity, cell-based; details: read-out: Ratio CC50/IC50
HCT-116 [3] = experiment: Antiproliferative activity against human HCT-116 cells assessed as cell growth inhibition; type: functional, cell-based
[4] = Selectivity index, ratio of IC50 for rat L6 cells to IC50 for Plasmodium falciparum K1; type: toxicity; details: read-out: Ratio IC50
Trypanosoma brucei = experiment: Antitrypanosomal activity against Trypanosoma brucei assessed as parasite growth inhibition; type: functional, organism-based
[5] = Selectivity index, ratio of IC50 for rat L6 cells to IC50 for Plasmodium falciparum NF54; type: toxicity; details: read-out: Ratio IC50
[6] = target: T1, Telomerase reverse transcriptase (Homo sapiens, UniProt O14746); experiment: Inhibition of telomerase derived from human K562 cell extract incubated for 30 mins by TRAP assay; type: cell-free
T1 sequence (O14746 whole entry): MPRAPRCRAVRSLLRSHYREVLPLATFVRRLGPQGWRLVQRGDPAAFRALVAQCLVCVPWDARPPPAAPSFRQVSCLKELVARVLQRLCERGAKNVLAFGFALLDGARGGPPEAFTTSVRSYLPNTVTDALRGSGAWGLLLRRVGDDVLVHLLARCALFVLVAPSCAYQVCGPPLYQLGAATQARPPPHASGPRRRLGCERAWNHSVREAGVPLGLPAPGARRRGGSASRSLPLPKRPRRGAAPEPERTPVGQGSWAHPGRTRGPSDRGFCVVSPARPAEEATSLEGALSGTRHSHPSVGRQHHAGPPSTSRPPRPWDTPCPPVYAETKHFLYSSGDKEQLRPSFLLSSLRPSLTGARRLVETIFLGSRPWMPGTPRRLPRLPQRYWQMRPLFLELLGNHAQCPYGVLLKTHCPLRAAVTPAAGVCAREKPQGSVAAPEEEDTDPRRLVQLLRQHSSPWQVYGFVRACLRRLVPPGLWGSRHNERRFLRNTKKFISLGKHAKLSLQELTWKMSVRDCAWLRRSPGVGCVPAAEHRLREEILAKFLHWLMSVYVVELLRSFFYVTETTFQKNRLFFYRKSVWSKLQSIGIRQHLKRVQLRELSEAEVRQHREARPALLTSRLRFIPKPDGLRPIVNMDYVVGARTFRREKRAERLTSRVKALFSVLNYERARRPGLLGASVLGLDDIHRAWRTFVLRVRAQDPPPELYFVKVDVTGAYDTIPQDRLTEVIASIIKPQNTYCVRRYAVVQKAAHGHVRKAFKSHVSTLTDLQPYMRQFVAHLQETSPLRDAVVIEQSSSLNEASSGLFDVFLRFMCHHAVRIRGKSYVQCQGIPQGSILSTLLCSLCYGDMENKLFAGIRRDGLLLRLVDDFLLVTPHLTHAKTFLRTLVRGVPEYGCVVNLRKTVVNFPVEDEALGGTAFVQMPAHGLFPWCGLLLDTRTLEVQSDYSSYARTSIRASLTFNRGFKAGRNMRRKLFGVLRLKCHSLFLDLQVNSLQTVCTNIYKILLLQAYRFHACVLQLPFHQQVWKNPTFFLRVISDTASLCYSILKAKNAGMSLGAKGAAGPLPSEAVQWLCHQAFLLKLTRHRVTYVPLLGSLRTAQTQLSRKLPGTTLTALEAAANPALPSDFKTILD

[7] = Cytotoxicity against rat L6 cells assessed as cell growth inhibition; type: toxicity, cell-based
Plasmodium falciparum [8] = experiment: Antimalarial activity against Plasmodium falciparum K1 assessed as parasite growth inhibition; type: functional, organism-based
Hemozoin [9] = experiment: Inhibition of beta-hematin formation
Plasmodium falciparum [10] = experiment: Antimalarial activity against Plasmodium falciparum NF54 assessed as parasite growth inhibition; type: functional, organism-based
HeLa = experiment: Antiproliferative activity against human HeLa cells assessed as cell growth inhibition; type: functional, cell-based
DU-145 = experiment: Antiproliferative activity against human DU-145 cells assessed as cell growth inhibition; type: functional
A549 = experiment: Antiproliferative activity against human A549 cells assessed as cell growth inhibition; type: functional, cell-based
MCF7 = experiment: Antiproliferative activity against human MCF7 cells assessed as cell growth inhibition; type: functional, cell-based
CH1 [11] = experiment: Cytotoxicity against drug resistant human CH1 cells assessed as cell growth inhibition; type: functional, cell-based
A2780 [12] = experiment: Cytotoxicity against human A2780 cells assessed as cell growth inhibition; type: functional, cell-based
A2780 [13] = experiment: Cytotoxicity against drug resistant human A2780 cells assessed as cell growth inhibition; type: functional, cell-based
CH1 [14] = experiment: Cytotoxicity against human CH1 cells assessed as cell growth inhibition; type: functional, cell-based
[15] = target: T1, Telomerase reverse transcriptase; experiment: Inhibition of telomerase derived from human A2780 cell extract by TRAP assay; type: cell-free
Plasmodium berghei = experiment: Antimalarial activity against Plasmodium berghei NK65 infected in Webster Swiss mouse assessed as parasite growth inhibition at 50 mg/kg/day, po for 5 days by geimsa dye based microscopy relative to control; type: functional; parameters: scale not given: the % may be the effect or the level left; details: time 5 day
Hemozoin [16] = experiment: Inhibition of detergent-mediated beta-hematin formation incubated for 5 to 6 hrs by absorbance based assay
[17] = Selectivity index, ratio of IC50 for rat L6 cells to IC50 for erythrocytic Plasmodium falciparum K1; type: toxicity; details: read-out: Ratio IC50
SR = experiment: Antiproliferative activity against human SR cells assessed as cell growth inhibition; type: functional
K562 = experiment: Antiproliferative activity against human K562 cells assessed as cell growth inhibition; type: functional
HL-60 = experiment: Antiproliferative activity against human HL-60 cells assessed as cell growth inhibition; type: functional
RPMI-8226 = experiment: Antiproliferative activity against human RPMI-8226 cells assessed as cell growth inhibition; type: functional
MOLT-4 = experiment: Antiproliferative activity against human MOLT-4 cells assessed as cell growth inhibition; type: functional
SK-OV-3 = experiment: Cytotoxicity against human SK-OV-3 cells assessed as cell growth inhibition; type: functional, cell-based
Plasmodium falciparum [18] = experiment: Antimalarial activity against multi-drug resistant Plasmodium falciparum K1 assessed as parasite growth inhibition by microdilution method; type: functional, organism-based
Plasmodium falciparum [19] = experiment: Antimalarial activity against chloroquine/mefloquine resistant Plasmodium falciparum clinical isolates assessed as parasite growth inhibition incubated for 24 hrs by microtechnique method; type: functional, organism-based
HCT-116 [20] = experiment: Antiproliferative activity against human HCT-116 cells assessed as cell growth inhibition incubated for 96 hrs by MTS assay; type: functional, cell-based; details: HCT-116, 96 h
[21] = Selectivity index, ratio of IC50 for rat L6 cells to IC50 for erythrocytic Plasmodium falciparum NF54; type: toxicity; details: read-out: Ratio IC50

## Cn1cc2c3ccccc3nc-2c2ccccc21 [ISOCRYPTOLEPINE]
MOLT-3
  IC50: 0.73 µM
Plasmodium falciparum [1]
  IC50: 0.78 µM
[2]
  selectivity ratio: 1.8

## CN(CCCNc1c2ccccc2nc2c1[nH]c1ccccc12)C(=O)c1cccc(B(O)O)c1
HCT-116 [3]
  IC50: 15.7 µM

## Cn1c2nc3ccccc3c-2c(NCCCNC(=S)Nc2ccccc2)c2ccccc21
[4]
  selectivity ratio: 11
Trypanosoma brucei
  IC50: 0.589 µM
[5]
  selectivity ratio: 135

## c1ccc2c(NCCN3CCOCC3)c3[nH]c4ccccc4c3nc2c1
[6]
  IC50: 0.55 µM

## CN(C)CCNc1nc2ccccc2c2[nH]c3ccccc3c12
[7]
  IC50: 0.627 µM
[4]
  selectivity ratio: 7.6
Plasmodium falciparum [8]
  IC50: 0.0827 µM
[5]
  selectivity ratio: 45.8
Hemozoin [9]
  IC50: 627 µM
Plasmodium falciparum [10]
  IC50: 0.0137 µM

## C=CCn1c2ccccc2c2c(C(=O)NC3CCCCC3)c3cc(F)ccc3nc21
HeLa
  GI50: 9.9 µM
DU-145
  GI50: 9.4 µM
A549
  GI50: 7.7 µM
MCF7
  GI50: 11.9 µM

## Cn1c2nc3ccccc3c-2c(NCC(C)(C)CNC(=O)Nc2ccccc2)c2ccccc21
[7]
  IC50: 5.65 µM
[5]
  selectivity ratio: 82.2
Hemozoin [9]
  IC50: 26.3 µM
Plasmodium falciparum [10]
  IC50: 0.068 µM

## CN(C)CCc1ccc2nc3c4ccccc4n(CCN(C)C)c3cc2c1
CH1 [11]
  IC50: 12.5 µM
A2780 [12]
  IC50: 12.5 µM
A2780 [13]
  IC50: 10.5 µM
CH1 [14]
  IC50: 8.4 µM

## c1cc2nc3c(cc2cc1CCCN1CCCC1)[nH]c1ccc(CCCN2CCCC2)cc13
[15]
  IC50: 6.3 µM

## C[n+]1c2ccccc2c(NC2CCNCC2)c2[nH]c3ccccc3c21
Plasmodium berghei
  Activity: 55%

## C[C@H]1[C@H](OC(=O)CCC(=O)NCCCNc2nc3ccccc3c3[nH]c4ccccc4c23)O[C@@H]2O[C@@]3(C)CC[C@H]4[C@H](C)CC[C@@H]1[C@@]24OO3
Hemozoin [16]
  IC50: 15.7 µM
[17]
  selectivity ratio: 3280

## COc1cc2c(cc1CN1CCN(C)CC1)[nH]c1c3ccc(Cl)cc3ncc21
Plasmodium falciparum [8]
  IC50: 0.0024 µM

## COc1c2c3ccccc3nc-2n(C)c2ccccc12
SR
  GI50: 7.1 µM
K562
  GI50: 11.5 µM
HL-60
  GI50: 9.88 µM
RPMI-8226
  GI50: 6.04 µM
MOLT-4
  GI50: 4.7 µM

## CCN(CC)Cc1cc2[nH]c3c4ccc(Cl)cc4ncc3c2cc1OC
Plasmodium falciparum [8]
  IC50: 0.009 µM

## c1ccc2nc3c(cc2c1)[nH]c1ccccc13 [QUINDOLINE]
CH1 [11]
  IC50: 30 µM
SK-OV-3
  IC50: 66 µM
A2780 [12]
  IC50: 21.5 µM
Plasmodium falciparum [18]
  IC50: > 229 µM
A2780 [13]
  IC50: 24.5 µM
[6]
  IC50: > 138 µM
CH1 [14]
  IC50: 15.5 µM

## COc1ccc(Nc2c3c4ccccc4nc-3n(C)c3ccccc23)cc1
SR
  GI50: 0.19 µM
K562
  GI50: 0.42 µM
HL-60
  GI50: 0.11 µM
RPMI-8226
  GI50: 0.14 µM
MOLT-4
  GI50: 0.09 µM

## CN(C)c1ccc(C2SCC(=O)N2CCCNc2c3c4ccccc4nc-3n(C)c3ccccc23)cc1 (stereo not given)
Trypanosoma brucei
  IC50: 1.37 µM

## COc1ccc2[nH]c3c4ccc(Cl)cc4ncc3c2c1
Plasmodium falciparum [19]
  IC50: 0.002 µM

## CCN(CC)CCOC(=O)c1ccc2c(c1)c1c(c(=O)c3ccccc3n1CCN(CC)CC)n2CCN(CC)CC
HCT-116 [20]
  IC50: 4.5 µM

## c1cc2nc3c(cc2cc1CCCN1CCCCC1)[nH]c1ccc(CCCN2CCCCC2)cc13
[15]
  IC50: 11.8 µM

## C[C@H]1[C@H](OC(=O)CCC(=O)NCCCNc2c3ccccc3nc3c2[nH]c2ccccc23)O[C@@H]2O[C@@]3(C)CC[C@H]4[C@H](C)CC[C@@H]1[C@@]24OO3
Hemozoin [16]
  IC50: 17.1 µM
[21]
  selectivity ratio: 1720

## Cn1c2nc3ccccc3c-2c(NCC(C)(C)CNC(=S)Nc2ccccc2)c2ccccc21
[7]
  IC50: 7.25 µM
[5]
  selectivity ratio: 126
Hemozoin [9]
  IC50: 19.9 µM
Plasmodium falciparum [10]
  IC50: 0.057 µM

## COC(=O)c1ccc2c(c1)c(NCCCN)c1c3ccccc3nc-1n2C
Hemozoin [9]
  IC50: 104 µM
